Measured values as given in US7498323B2, “Spiro-piperidine compounds and medicinal use thereof” (Ono Pharmaceuticals Co., Ltd., priority 2003, dated 2009).

Target: Human CCR2 (Homo sapiens, UniProt P41597)
Details: at 10 μM; human CCR2-expressing cells (THP-1); human MCP-1 30 nM; Ca2+ transient increase
Description: (5) Inhibition test on the binding of MCP-1 to CCR2 (activity of MCP-1 to induce transient increase of Ca ion).
Then, 4-fold to 8-fold 1×Hanks/HEPES (20 mM; pH 7.4)/Probenecid (2.5 mM) was added thereto, followed by further incubation at 37° C. for 30 minutes under shading. After the cells were washed with 1×Hanks/HEPES (20 mM; pH 7.4)/Probenecid (2.5 mM) solution, the cells were suspended again by the same solution to give a density of 2.0×10^6 cells/ml and added to a 96-well plate at 100 μl/well. Each of the test compounds was added, and 3 minutes thereafter, a recombinant human MCP-1 (PeproTach) diluted with 1×Hanks/HEPES (20 mM; pH 7.4)/Probenecid (2.5 mM) was added thereto to a final concentration of 30 nM. Transient increase in the intracellular Ca^2+ concentration induced by the human MCP-1 was measured using a Ca^2+ detector for 96 well use (Hamamatsu Photonics), and inhibition ratio (%) of the test compound was calculated by the following calculation formula. Inhibition ratio=(Ec−Ea)/Ec×100 • Ec: measured value of Ca^2+ transient increase by MCP-1 • Ea: measured value of Ca^2+ transient increase by MCP-1 when a test compound was added.

Human CCR2, sequence (P41597 1-360 isoform P41597-2): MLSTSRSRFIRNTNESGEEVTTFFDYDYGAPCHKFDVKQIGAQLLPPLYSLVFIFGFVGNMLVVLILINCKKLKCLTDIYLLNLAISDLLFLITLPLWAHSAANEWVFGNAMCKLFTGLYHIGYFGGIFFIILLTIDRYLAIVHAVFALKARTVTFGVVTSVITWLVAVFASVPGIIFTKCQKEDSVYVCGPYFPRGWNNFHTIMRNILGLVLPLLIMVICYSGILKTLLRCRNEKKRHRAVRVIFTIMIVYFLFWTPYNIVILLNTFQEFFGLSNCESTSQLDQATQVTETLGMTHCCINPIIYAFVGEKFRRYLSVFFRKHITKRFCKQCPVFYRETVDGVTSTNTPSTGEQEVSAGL

CCCN1C(=O)N(CCCNC(=O)OCc2ccccc2)CCC12CCN(CCc1ccccc1)CC2 [Example 37, phenylmethyl{3-[2-oxo-9-(2-phenylethyl)-1-propyl-1,3,9-triazaspiro[5.5]undeca-3-yl]propyl}carbamate]
inhibition ratio: ≥ 50%
